Series [1] concerns Amaranthus caudatus. Nature of the series: Growth promoting activity in Amaranthus caudatus var. atropurpurea seeds by measuring betacyanin at 10^-5 mol/L after 48 hrs relative to control. It is filed as functional.
A short description of series [2]: Antioxidant activity assessed as trolox equivalent of AAPH-induced radical scavenging activity at 1 uM pretreated for 15 mins followed by […] challenge measured every 3 mins over 90 mins by ORAC-FL assay. It is filed as functional.
The test system of series [3] is NHDF. Nature of the series: Cytoprotection against phototoxicity in human NHDF cells assessed as increase in cell viability at 3.9 to 31.3 uM preincubated for 60 mins followed by 7.5 J/cm2 UVA irradiation and measured after 24 hrs by neutral red uptake assay. The format is functional, cell-based.
Another series relates to Triticum aestivum. Nature of the series: Anti-senescent activity in leaf of Triticum aestivum cv. Hereward seedlings by measuring chlorophyll retention at 10^-4 mol/L after 4 days relative to control. The format is functional.
For series [4], the system named is NHDF. Nature of the series: Cytoprotection against phototoxicity in human NHDF cells assessed as increase in cell viability at 3.9 to 31.3 uM preincubated for 60 mins followed by 150 mJ/cm2 UVB irradiation and measured after 24 hrs by neutral red uptake assay. The format is functional, cell-based.
A further series deals with Nicotiana tabacum. Briefly: Growth promoting activity in tobacco callus assessed as callus weight at 10^-5 mol/L after 4 weeks relative to control. It is filed as functional.
In series [5] the test system is HaCaT. Briefly: Cytotoxicity in human HaCaT cells assessed as reduction in cell viability at 50 uM after 24 hrs by resazurin dye-based fluorescence assay relative to control.
The nature of series [6]: Stability of the compound in pH 6 solution at 10^-4 M after 24 hrs by HPLC analysis. The format is physicochemical. The following applies: read-out: Stability.
A short description of series [7]: Cytotoxicity in human HaCaT cells assessed as cell viability at 62.5 uM after 24 hrs by neutral red uptake assay relative to control. The format is cell-based. The following applies: read-out: Activity.
Series [8] can be described thus: Cytotoxicity in human HaCaT cells assessed as cell viability at 7.8 uM after 24 hrs by neutral red uptake assay relative to control. The format is cell-based. The following applies: read-out: Activity.
Series [9] in a line: Stability of the compound in pH 4 solution at 10^-4 M after 1 hr by HPLC analysis. The format is physicochemical. The following applies: read-out: Stability.
Series [10] in a line: Cytotoxicity in human NHDF cells assessed as cell viability at 15.6 uM after 24 hrs by neutral red uptake assay relative to control. The format is cell-based. The following applies: read-out: Activity.
Series [11] in a line: Phototoxicity in human HaCaT cells assessed as cell viability at 3.9 uM preincubated for 60 mins followed by 7.5 J/cm2 UVA irradiation and measured after 24 hrs by neutral red uptake assay relative to control. The following applies: read-out: Activity. The format is cell-based.
A short description of series [12]: Stability of the compound in pH 4 solution at 10^-4 M after 24 hrs by HPLC analysis. It is filed as physicochemical. The following applies: read-out: Stability.
Series [13] in a line: Phototoxicity in human HaCaT cells assessed as cell viability at 125 uM preincubated for 60 mins followed by 7.5 J/cm2 UVA irradiation and measured after 24 hrs by neutral red uptake assay relative to control. The following applies: read-out: Activity. The format is cell-based.
Series [14] can be described thus: Cytotoxicity in human NHDF cells assessed as cell viability at 31.3 uM after 24 hrs by neutral red uptake assay relative to control. The format is cell-based. The following applies: read-out: Activity.
Series [15] is described as follows: Stability of the compound in pH 5 solution at 10^-4 M after 1 hr by HPLC analysis. The format is physicochemical. The following applies: read-out: Stability.
Series [16] in a line: Cytotoxicity in human NHDF cells assessed as cell viability at 7.8 uM after 24 hrs by neutral red uptake assay relative to control. The following applies: read-out: Activity. It is filed as cell-based.
A short description of series [17]: Phototoxicity in human HaCaT cells assessed as cell viability at 62.5 uM preincubated for 60 mins followed by 7.5 J/cm2 UVA irradiation and measured after 24 hrs by neutral red uptake assay relative to control. It is filed as cell-based. The following applies: read-out: Activity.
Series [18] is described as follows: Phototoxicity in human NHDF cells assessed as cell viability at 15.6 uM preincubated for 60 mins followed by 5 J/cm2 UVA irradiation and measured after 24 hrs by neutral red uptake assay relative to control. It is filed as cell-based. The following applies: read-out: Activity.
Series [19] concerns Amaranthus caudatus. Nature of the series: Growth promoting activity in Amaranthus caudatus var. atropurpurea seeds by measuring betacyanin at 10^-4 mol/L after 48 hrs relative to control. The format is functional.
The nature of series [20]: Stability of the compound in pH 3 solution at 10^-4 M after 24 hrs by HPLC analysis. It is filed as physicochemical. The following applies: read-out: Stability.
A short description of series [21]: Stability of the compound in pH 5 solution at 10^-4 M after 24 hrs by HPLC analysis. The format is physicochemical. The following applies: read-out: Stability.
Series [22] concerns Caenorhabditis elegans. Nature of the series: Protection against juglone-induced oxidative stress in Caenorhabditis elegans BA17 (fem-1) at 100 uM preincubated for 3 days followed by juglone addition measured every hour for 12 ro 14 hrs by inverted microscopic analysis. The format is functional, organism-based.
Series [23] can be described thus: Cytotoxicity in human NHDF cells assessed as cell viability at 3.9 uM after 24 hrs by neutral red uptake assay relative to control. The format is cell-based. The following applies: read-out: Activity.
Series [24] is described as follows: Phototoxicity in human HaCaT cells assessed as cell viability at 15.6 uM preincubated for 60 mins followed by 7.5 J/cm2 UVA irradiation and measured after 24 hrs by neutral red uptake assay relative to control. It is filed as cell-based. The following applies: read-out: Activity.
Series [25] in a line: Phototoxicity in human NHDF cells assessed as cell viability at 3.9 uM preincubated for 60 mins followed by 5 J/cm2 UVA irradiation and measured after 24 hrs by neutral red uptake assay relative to control. It is filed as cell-based. The following applies: read-out: Activity.
Series [26] can be described thus: Phototoxicity in human HaCaT cells assessed as cell viability at 7.8 uM preincubated for 60 mins followed by 7.5 J/cm2 UVA irradiation and measured after 24 hrs by neutral red uptake assay relative to control. The format is cell-based. The following applies: read-out: Activity.
Series [27] has as its system Caenorhabditis elegans. Nature of the series: Protection against juglone-induced oxidative stress in wild type Caenorhabditis elegans N2 at 100 uM preincubated for 3 days followed by juglone addition and measured after 4 hrs by inverted microscopic analysis. It is filed as functional, organism-based.
Series [28] is described as follows: Cytotoxicity in human HaCaT cells assessed as cell viability at 31.3 uM after 24 hrs by neutral red uptake assay relative to control. It is filed as cell-based. The following applies: read-out: Activity.
Series [29] can be described thus: Cytotoxicity in human NHDF cells assessed as cell viability at 125 uM after 24 hrs by neutral red uptake assay relative to control. It is filed as cell-based. The following applies: read-out: Activity.
A short description of series [30]: Phototoxicity in human NHDF cells assessed as cell viability at 7.8 uM preincubated for 60 mins followed by 5 J/cm2 UVA irradiation and measured after 24 hrs by neutral red uptake assay relative to control. The following applies: read-out: Activity. It is filed as cell-based.
Series [31] can be described thus: Phototoxicity in human NHDF cells assessed as cell viability at 125 uM preincubated for 60 mins followed by 5 J/cm2 UVA irradiation and measured after 24 hrs by neutral red uptake assay relative to control. It is filed as cell-based. The following applies: read-out: Activity.
Series [32] in a line: Cytotoxicity in human HaCaT cells assessed as cell viability at 15.6 uM after 24 hrs by neutral red uptake assay relative to control. It is filed as cell-based. The following applies: read-out: Activity.
Series [33] is described as follows: Phototoxicity in human NHDF cells assessed as cell viability at 62.5 uM preincubated for 60 mins followed by 5 J/cm2 UVA irradiation and measured after 24 hrs by neutral red uptake assay relative to control. It is filed as cell-based. The following applies: read-out: Activity.
Another series concerns BJ. Briefly: Cytotoxicity in human BJ cells assessed as reduction in cell viability at 50 uM after 24 hrs by resazurin dye-based fluorescence assay relative to control. In general terms: The colour change of resazurin is a common sign of viable cells or microbes.
The nature of series [34]: Cytotoxicity in human NHDF cells assessed as cell viability at 62.5 uM after 24 hrs by neutral red uptake assay relative to control. The format is cell-based. The following applies: read-out: Activity.
A short description of series [35]: Stability of the compound in pH 6 solution at 10^-4 M after 1 hr by HPLC analysis. The format is physicochemical. The following applies: read-out: Stability.
Series [36] is described as follows: Cytotoxicity in human HaCaT cells assessed as cell viability at 3.9 uM after 24 hrs by neutral red uptake assay relative to control. The format is cell-based. The following applies: read-out: Activity.
Series [37] can be described thus: Stability of the compound in pH 3 solution at 10^-4 M after 1 hr by HPLC analysis. The format is physicochemical. The following applies: read-out: Stability.
Series [38] in a line: Phototoxicity in human HaCaT cells assessed as cell viability at 31.3 uM preincubated for 60 mins followed by 7.5 J/cm2 UVA irradiation and measured after 24 hrs by neutral red uptake assay relative to control. The format is cell-based. The following applies: read-out: Activity.
The nature of series [39]: Phototoxicity in human NHDF cells assessed as cell viability at 31.3 uM preincubated for 60 mins followed by 5 J/cm2 UVA irradiation and measured after 24 hrs by neutral red uptake assay relative to control. The following applies: read-out: Activity. The format is cell-based.
For series [40], the system named is HaCaT. Briefly: Cytoprotection against phototoxicity in human HaCaT cells assessed as increase in cell viability at 3.9 uM preincubated for 60 mins followed by 10 J/cm2 UVA irradiation and measured after 24 hrs by neutral red uptake assay. The format is functional, cell-based.
The nature of series [41]: Cytotoxicity in human HaCaT cells assessed as cell viability at 125 uM after 24 hrs by neutral red uptake assay relative to control. The format is cell-based. The following applies: read-out: Activity.
The test system of series [42] is HaCaT. Briefly: Phototoxicity in human HaCaT cells assessed as reduction in cell viability preincubated for 60 mins followed by 7.5 J/cm2 UVA irradiation and measured after 24 hrs by neutral red uptake assay. It is filed as cell-based. The following applies: light or radiation study.
The subject of series [43] is NHDF. Nature of the series: Phototoxicity in human NHDF cells assessed as reduction in cell viability preincubated for 60 mins followed by 5 J/cm2 UVA irradiation and measured after 24 hrs by neutral red uptake assay. The following applies: light or radiation study. It is filed as cell-based.

Calls of active or inactive are those of the source. The calls are words filed in the database; no cut-off is given here.

Take `c1coc(CNc2ncnc3[nH]cnc23)c1` [KINETIN]: the Activity in the series with Amaranthus caudatus [1] was 68%; in [2], 0.71 equiv; in the series with Triticum aestivum it was 98%; with Nicotiana tabacum, 101%. Further, the outcome with NHDF [3] and with NHDF [4] was Active.

With `Clc1nc(NCc2ccco2)c2ncn(C3CCCO3)c2n1` (centres undefined), the Activity in the series with HaCaT [5] was less than 10%; in series [2], less than 0.05 equiv; in the series on Amaranthus caudatus [19], 88%; in the series with Triticum aestivum, 75%; in the series with BJ, less than 10%; in the series with Nicotiana tabacum it was 112%. For the same compound, the remaining at 24 h, 100 µM in series [6] stood at 100%; in [12], 51.7%; in series [20] it was 0.9%; in series [21], 92.9%. Further, the viability at 24 h, 62.5 µM in series [7] was 110%; in [17] it was 116%; in [33], 103%; in series [34], 106%. The viability at 24 h, 7.8 µM in [8] was 107%; in series [16] it was 104%; in series [26] it was 120%; in series [30] it was 102%. Besides, the remaining at 1 h, 100 µM in series [9] is 100%; in series [15], 100%; in series [35], 100%; in [37] it was 98.8%. Moreover, the viability at 24 h, 15.6 µM amounted to 104% in series [10], 103% in series [18], 120% in [24] and 109% in series [32]. The viability at 24 h, 3.9 µM in series [11] amounted to 116%; in [23], 100%; in series [25] it was 100%; in series [36], 107%. For the same compound, the viability at 24 h, 125 µM in series [13] is 104%; in series [29], 101%; in [31] it was 97%; in [41], 105%. Moreover, the viability at 24 h, 31.3 µM in series [14] was found to be 105%; in [28], 109%; in series [38], 119%; in [39], 103%. Moreover, the outcome in the series on Caenorhabditis elegans [22], with Caenorhabditis elegans [27] and in the series on HaCaT [40] was Active.

As for `CN(C)CCCN1c2ccccc2Sc2ccc(Cl)cc21` [CHLORPROMAZINE], the results for the IC50 in the series on HaCaT [42] and in the series on NHDF [43] were 36.1 µM and 25.5 µM, respectively.
